Results from ChEMBL document CHEMBL3351790, “Inhibitory effects of p-alkylaminophenol on melanogenesis” (Bioorg Med Chem, 2014).
One block for each compound: values may come before it. Active and inactive are the calls of the source. The rule behind the calls is not given here.

Legend:
Liver microsome = assay: Inhibition of lipid peroxidation in rat liver microsomes; format: functional
B16 [1] = assay: Inhibition of alpha-MSH-induced AKT phosphorylation in mouse B16 cells at 0.1 to 1 uM after 3 days by Western blotting relative to control; format: cell-based
B16 [2] = assay: Inhibition of alpha-MSH-induced ERK phosphorylation in mouse B16 cells at 1 uM after 3 days by Western blotting relative to control; format: cell-based
B16 [3] = assay: Inhibition of alpha-MSH-induced ERK phosphorylation in mouse B16 cells at 0.4 uM after 3 days by Western blotting relative to control; format: cell-based
[4] = molecular target: T1, Tyrosinase (Mus musculus) (UniProt P11344); assay: Inhibition of tyrosinase in mouse B16 cells using L-tyrosine as substrate preincubated at 50 uM for 20 mins by spectrophotometry relative to control; format: cell-based
T1 sequence (whole entry): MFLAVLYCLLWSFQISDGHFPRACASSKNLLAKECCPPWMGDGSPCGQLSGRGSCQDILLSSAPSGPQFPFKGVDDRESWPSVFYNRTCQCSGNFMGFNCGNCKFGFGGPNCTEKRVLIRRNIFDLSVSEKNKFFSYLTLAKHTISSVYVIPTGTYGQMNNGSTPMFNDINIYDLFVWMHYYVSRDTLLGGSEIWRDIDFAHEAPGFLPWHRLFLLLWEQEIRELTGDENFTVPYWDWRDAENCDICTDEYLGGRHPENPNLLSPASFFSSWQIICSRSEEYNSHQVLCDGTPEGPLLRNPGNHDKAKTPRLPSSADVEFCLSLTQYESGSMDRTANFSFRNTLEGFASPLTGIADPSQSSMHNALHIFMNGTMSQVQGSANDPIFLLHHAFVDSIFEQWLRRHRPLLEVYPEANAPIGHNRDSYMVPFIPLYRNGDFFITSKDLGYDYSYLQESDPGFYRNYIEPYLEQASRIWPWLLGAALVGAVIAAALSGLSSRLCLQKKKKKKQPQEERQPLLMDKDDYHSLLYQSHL

B16 [5] = assay: Inhibition of alpha-MSH-induced melanin production in mouse B16 cells at 0.1 to 0.4 uM after 3 days by spectrophotometry relative to control; format: functional, cell-based
B16 [6] = assay: Inhibition of alpha-MSH-induced tyrosinase protein expression in mouse B16 cells at 0.1 to 1 uM after 3 days by Western blotting relative to control; format: functional, cell-based
B16 [7] = assay: Inhibition of alpha-MSH-induced TRP-2 protein expression in mouse B16 cells at 0.1 to 1 uM after 3 days by Western blotting relative to control; format: functional, cell-based
B16 [8] = assay: Inhibition of alpha-MSH-induced MITF mRNA expression in mouse B16 cells at 1 uM after 3 days by RT-PCR analysis relative to control; format: functional; conditions: B16, 72 h
B16 [9] = assay: Inhibition of alpha-MSH-induced TRP-1 mRNA expression in mouse B16 cells at 1 uM after 3 days by RT-PCR analysis relative to control; format: functional; conditions: B16, 72 h
B16 [10] = assay: Inhibition of alpha-MSH-induced melanin production in mouse B16 cells at 1 uM after 3 days by spectrophotometry relative to control; format: functional; conditions: B16, 72 h
B16 [11] = assay: Cytotoxicity against mouse B16 cells at 1 uM after 72 hrs by MTT assay; format: cell-based; conditions: b16, 72 h
B16 [12] = assay: Inhibition of alpha-MSH-induced MITF protein expression in mouse B16 cells after 3 days by Western blotting relative to control; format: functional, cell-based
B16 [13] = assay: Inhibition of alpha-MSH-induced ERK phosphorylation in mouse B16 cells at 0.1 uM after 3 days by Western blotting relative to control; format: cell-based
B16 [14] = assay: Inhibition of alpha-MSH-induced TRP-2 mRNA expression in mouse B16 cells at 0.1 to 1 uM after 3 days by RT-PCR analysis relative to control; format: functional, cell-based
B16 [15] = assay: Inhibition of alpha-MSH-induced tyrosinase mRNA expression in mouse B16 cells at 0.1 to 1 uM after 3 days by RT-PCR analysis relative to control; format: functional, cell-based
B16 [16] = assay: Inhibition of alpha-MSH-induced TRP-1 protein expression in mouse B16 cells after 3 days by Western blotting relative to control; format: functional, cell-based

inhibition [4]: 7% | IC50 (Liver microsome): 15 nM
SMILES: CCCCCCCCCCNc1ccc(O)cc1
inhibition (B16 [1]): inactive | inhibition (B16 [2]): 88% | inhibition (B16 [3]): 75% | inhibition (B16 [5]): inactive | inhibition (B16 [6]): inactive | inhibition (B16 [7]): inactive | inhibition at 1 µM (B16 [8]): 68% | inhibition at 1 µM (B16 [9]): 50% | inhibition at 1 µM (B16 [10]): 34% | Activity (B16 [11]): Non-toxic | inhibition (B16 [12]): Dose-dependent effect | inhibition (B16 [13]): 22% | inhibition (B16 [14]): inactive | inhibition (B16 [15]): inactive | inhibition (B16 [16]): Dose-dependent effect

IC50 (Liver microsome): 15.5 nM
SMILES: CCCCCCCCCCCCNc1ccc(O)cc1

The next lines start with the compound.

SMILES: CC1=C(/C=C/C(C)=C/C=C/C(C)=C/C(=O)Nc2ccc(O)cc2)C(C)(C)CCC1 [FENRETINIDE]
IC50 (Liver microsome): 5000 nM

SMILES: CCCCCCNc1ccc(O)cc1
IC50 (Liver microsome): 33 nM

SMILES: CC1=C(/C=C/C(C)=C/C=C/C(C)=C/C(=O)O)C(C)(C)CCC1 [TRETINOIN]
IC50 (Liver microsome): 3200 nM

SMILES: CCCCCCCCNc1ccc(O)cc1
IC50 (Liver microsome): 14 nM
